Our source for the IC50 values is patent US6093732A, “4-hydroxyquinoline-3-carboxamides and hydrazides as antiviral agents” (Pharmacia & Upjohn Company, priority 1998, dated 2000).

Structures are written as SMILES. Structures can show the parent of a compound that is named as a salt.

In the experiment the target is T1, HCMV polymerase (Human cytomegalovirus, UniProt P08546).
T1 construct: made in house; host or cells: recombinant baculovirus-infected SF-9 cells
T1 sequence (P08546 whole entry): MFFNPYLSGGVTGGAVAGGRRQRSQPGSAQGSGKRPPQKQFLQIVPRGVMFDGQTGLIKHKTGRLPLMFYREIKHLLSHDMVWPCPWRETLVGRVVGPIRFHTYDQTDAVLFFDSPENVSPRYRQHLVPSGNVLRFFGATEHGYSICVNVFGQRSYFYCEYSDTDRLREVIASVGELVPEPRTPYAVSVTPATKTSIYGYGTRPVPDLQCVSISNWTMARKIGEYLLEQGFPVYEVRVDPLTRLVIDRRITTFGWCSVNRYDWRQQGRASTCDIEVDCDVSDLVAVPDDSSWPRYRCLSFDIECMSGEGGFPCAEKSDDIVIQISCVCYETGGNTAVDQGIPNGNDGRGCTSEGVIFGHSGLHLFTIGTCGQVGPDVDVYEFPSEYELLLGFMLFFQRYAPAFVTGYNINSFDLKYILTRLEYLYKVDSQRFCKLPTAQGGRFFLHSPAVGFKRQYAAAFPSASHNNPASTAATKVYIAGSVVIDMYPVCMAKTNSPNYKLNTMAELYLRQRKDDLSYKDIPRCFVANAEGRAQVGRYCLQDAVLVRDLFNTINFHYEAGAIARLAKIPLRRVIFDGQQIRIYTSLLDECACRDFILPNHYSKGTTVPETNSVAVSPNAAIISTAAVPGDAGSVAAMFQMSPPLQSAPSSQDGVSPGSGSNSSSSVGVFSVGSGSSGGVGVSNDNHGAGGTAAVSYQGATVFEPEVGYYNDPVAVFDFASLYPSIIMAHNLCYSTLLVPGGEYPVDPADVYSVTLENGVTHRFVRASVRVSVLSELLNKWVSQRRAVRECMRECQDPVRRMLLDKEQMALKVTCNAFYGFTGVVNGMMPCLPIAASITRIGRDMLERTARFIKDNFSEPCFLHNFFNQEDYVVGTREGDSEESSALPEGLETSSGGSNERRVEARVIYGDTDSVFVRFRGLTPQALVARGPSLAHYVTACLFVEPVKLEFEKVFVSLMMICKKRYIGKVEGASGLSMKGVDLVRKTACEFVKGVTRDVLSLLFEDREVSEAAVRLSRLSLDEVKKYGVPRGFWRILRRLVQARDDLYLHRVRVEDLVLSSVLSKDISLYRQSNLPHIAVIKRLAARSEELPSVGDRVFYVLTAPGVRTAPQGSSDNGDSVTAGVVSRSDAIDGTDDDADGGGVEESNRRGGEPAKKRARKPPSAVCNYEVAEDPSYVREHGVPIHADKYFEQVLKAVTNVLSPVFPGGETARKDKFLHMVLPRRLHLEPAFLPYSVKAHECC
In words: HCMV polymerase scintillation proximity assay (SPA), modified version. Type of experiment: biochemical. The note with it: CMV polymerase; Table 1; modified assay with 4.5 mM DTT, compounds in 100% DMSO; read-out: Antiviral Selective Polymerase IC50 Values, CMV. In outline: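 Recombinant polymerase (baculovirus/SF-9) in 5.4 mM HEPES pH 7.5, 11.7 mM KCl, 4.5 mM MgCl2, 0.36 mg/ml BSA, 90 nM 3H-dTTP, ±2 mM CHAPS; started with 6 nM biotinylated poly(dA)-oligo(dT), 25° C or 37° C, EDTA-stopped in linear range (30 min for HCMV). Streptavidin-SPA read; IC50 by linear regression. Modified version: 100% DMSO compound dilution, 4.5 mM DTT added.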
In general terms: SPA uses beads or plates that emit light when radiolabelled molecules are held near them.
`COc1cc(I)cc2c(O)c(C(=O)NCc3ccc(Cl)cc3)cnc12` [Example 117, N-(4-Chlorobenzyl)-4-hydroxy-6-iodo-8-methoxy-3-quinolinecarboxamide]: the IC50 (in general, the midpoint of a concentration-inhibition curve) worked out at 8.7 µM. Regarding `O=C(NCc1ccc(Cl)cc1)c1cnc2c(F)cc(S(=O)(=O)NCc3ccncc3)cc2c1O` [Example 219, N-(4-chlorobenzyl)-8-fluoro-4-hydroxy-6-{[(4-pyridinylmethyl)amino]sulfonyl}-3-quinolinecarboxamide], the IC50 is 11 µM. For `O=C(NCc1ccc(Cl)cc1)c1cnc2c(F)cc(S(=O)(=O)NCc3ccc(Cl)cc3)cc2c1O` [Example 220, N-(4-chlorobenzyl)-6-{[(4-chlorobenzyl)amino]sulfonyl}-8-fluoro-4-hydroxy-3-quinolinecarboxamide] the value was 10.7 µM; for `CC(C)(C)O[PH](=O)OCCCc1ccc2ncc(C(=O)NCc3ccc(Cl)cc3)c(O)c2c1` (stereo not drawn) [Example 270, tert-Butyl 3-(3-{[(4-chlorobenzyl)amino]carbonyl}-4-hydroxy-6-quinolinyl)propyl phosphonate], 2.8 µM. Take `O=C(NCc1ccc(Cl)cc1)c1cnc2c(F)cc(S(=O)(=O)NCCc3ccc(O)c(O)c3)cc2c1O` [Example 246, N-(4-chlorobenzyl)-6-{[(3,4-dihydroxyphenethyl)amino]-sulfonyl}-8-fluoro-4-hydroxy-3-quinolinecarboxamide]: the IC50 was 8.6 µM.

`O=C(NCc1ccc(Cl)cc1)c1cnc2c(F)cc(-c3nccs3)cc2c1O` [Example 87, N-(4-Chlorobenzyl)-8-fluoro-4-hydroxy-6-(1,3-thiazol-2-yl)-3-quinolinecarboxamide]: the IC50 was 7.9 µM.

In the case of `CCCCCNS(=O)(=O)c1cc(F)c2ncc(C(=O)NCc3ccc(Cl)cc3)c(O)c2c1` [Example 235, N-(4-chlorobenzyl)-8-fluoro-4-hydroxy-6-[(pentylamino)sulfonyl]-3-quinolinecarboxamide], the IC50 was determined as 11.8 µM. Then `NS(=O)(=O)c1ccc(CNS(=O)(=O)c2cc(F)c3ncc(C(=O)NCc4ccc(Cl)cc4)c(O)c3c2)cc1` [Example 249, 6-({[4-(aminosulfonyl)benzyl]amino}sulfonyl)-N-(4-chlorobenzyl)-8-fluoro-4-hydroxy-3-quinolinecarboxamide], with 7.6 µM; and `O=C(NCc1ccc(Cl)cc1)c1cnc2ccc(COC(CO)CO)cc2c1O` [Example 164, N-(4-Chlorobenzyl)-4-hydroxy-6-{[2-hydroxy-1-(hydroxymethyl)ethoxy]methyl}-3-quinolinecarboxamide], with 2.3 µM; and `O=C(NCc1ccc(Cl)cc1)c1cnc2c(F)cc(I)cc2c1O` [Example 5, N-[(4-Chlorophenyl)methyl]-8-fluoro-4-hydroxy-6-iodo-3-quinolinecarboxamide], with 5.8 µM. Then `N#CCCCCCc1cc(F)c2ncc(C(=O)NCc3ccc(Cl)cc3)c(O)c2c1` [Example 105, N-(4-Chlorobenzyl)-6-(5-cyanopentyl)-8-fluoro-4-hydroxy-3-quinolinecarboxamide], with 10.4 µM; and `O=C(NCc1ccc(Cl)cc1)c1cnc2c(F)cc(S(=O)(=O)NCc3cccc4ccccc34)cc2c1O` [Example 192, N-(4-Chlorobenzyl)-8-fluoro-4-hydroxy-6-{[(1-naphthylmethyl)aminor]-sulfonyl}-3-quinolinecarboxamide], with 1.6 µM; and `NCCSc1cc(F)c2ncc(C(=O)NCc3ccc(Cl)cc3)c(O)c2c1` [Example 172, 6-[(2-Aminoethyl)sulfanyl]-N-(4-chlorobenzyl)-8-fluoro-4-hydroxy-3-quinolinecarboxamide, hydrobromide], with 35.1 µM. In the case of `O=C(NCc1ccc(Cl)cc1)c1cnc2ccc(O)cc2c1O` [Example 44, N-[(4-Chlorophenyl)methyl]-4,6-dihydroxy-3-quinoline-carboxamide], the IC50 came to 28.7 µM.

Take `CC(C)(C)OC(=O)CNS(=O)(=O)c1cc(F)c2ncc(C(=O)NCc3ccc(Cl)cc3)c(O)c2c1` [Example 257, tert-butyl 2-{[(3-{[(4-chlorobenzyl)amino]carbonyl}-8-fluoro-4-hydroxy-6-quinolinyl)sulfonyl]amino}acetate]: the IC50 is 16.3 µM. Then `O=C(NCc1ccc(Cl)cc1)c1cnc2c(F)ccc(F)c2c1O` [Example 17, N-[(4-Chlorophenyl)methyl]-5,8-difluoro-4-hydroxy-3-quinolinecarboxamide], with 3.3 µM. Then `O=C(NCc1ccc(Cl)cc1)c1cnc2c(F)c(Oc3ccc(CO)cc3)c(F)cc2c1O` [Example 81, N-((4-Chlorophenyl)methyl)-6,8-difluoro-4-hydroxy-7-(4-(hydroxymethyl)phenoxy)-3-quinolinecarboxamide], with 7.8 µM. `CC(=O)/C=C/c1cc(F)c2ncc(C(=O)NCc3ccc(Cl)cc3)c(O)c2c1` [Example 153, N-(4-Chlorobenzyl)-8-fluoro-4-hydroxy-6-[(E)-3-oxo-1-butenyl]-3-quinolinecarboxamide]: the IC50 came to 8.3 µM. For `O=C(NCc1ccc(Cl)cc1)c1cnc2c(F)cc(-c3cc(Br)cs3)cc2c1O` [Example 97, 6-(4-Bromo-2-thienyl)-N-(4-chlorobenzyl)-8-fluoro-4-hydroxy-3-quinolinecarboxamide] the value was 18.6 µM. For `CC(C)(C)c1ccc2ncc(C(=O)NCc3ccc(Cl)cc3)c(O)c2c1` [Example 63, N-[(4-Chlorophenyl)methyl]-6-(1,1-dimethylethyl)-4-hydroxy-3-quinolinecarboxamide] the value was 7 µM. For `O=C(CN1CCOCC1)OCCCc1cc(F)c2ncc(C(=O)NCc3ccc(Cl)cc3)c(O)c2c1` [Example 147, 3-(3-([(4-Chlorobenzyl)amino]carbonyl}-8-fluoro-4-hydroxy-6-quinolinyl)propyl 2-morpholinoacetate] the value was 7 µM; for `O=C(NCc1ccc(Cl)cc1)c1cnc2c(OC(F)(F)F)cc(C#CCO)cc2c1O` [Example 122, N-(4-Chlorobenzyl)-4-hydroxy-6-(3-hydroxy-1-propynyl)-8-(trifluoromethoxy)-3-quinolinecarboxamide], 1.8 µM; for `CC(C)(C)OP(=O)(OCCCc1cc(F)c2ncc(C(=O)NCc3ccc(Cl)cc3)c(O)c2c1)OC(C)(C)C` [Example 267, Di(tert-butyl) 3-(3-{[(4-chlorobenzyl)amino]carbonyl}-8-fluoro-4-hydroxy-6-quinolinyl)propyl phosphate], 52.2 µM. As for `O=C(NNc1ccc(Cl)cc1)c1cnc2c(F)cc(I)cc2c1O` [Example 54, 8-Fluoro-4-hydroxy-6-iodo-3-quinolinecarboxylic acid 2-(4-chlorophenyl)hydrazide], the IC50 was 8.6 µM. As for `O=C(NCc1ccc(Cl)cc1)c1cnc2cc(I)ccc2c1O` [Example 39, N-[(4-Chlorophenyl)methyl]-4-hydroxy-7-iodo-3-quinolinecarboxamide], the IC50 was < 3.1 µM. For `N#Cc1cc(F)c2ncc(C(=O)NCc3ccc(Cl)cc3)c(O)c2c1` [Example 51, N-[(4-Chlorophenyl)methyl]-6-cyano-8-fluoro-4-hydroxy-3-quinolinecarboxamide] the value was 12.2 µM; for `O=C(NCc1ccc(Cl)cc1)c1cnc2c(F)cc(S(=O)(=O)NCc3ccco3)cc2c1O` [Example 204, N-(4-chlorobenzyl)-8-fluoro-6-{[(2-furylmethyl)amino]sulfonyl}-4-hydroxy-3-quinolinecarboxamide], 13.8 µM; for `O=C(NCc1ccc(Cl)cc1)c1cnc2c(F)cc(S(=O)(=O)NCc3ccco3)cc2c1O` [Example 194, N-(4-Chlorobenzyl)-8-fluoro-6-{[(2-furylmethyl)amino]sulfonyl}-4-hydroxy-3-quinolinecarboxamide], 15.3 µM. Turning to `O=C(NCc1ccc(Cl)cc1)c1c[nH]c2ccc(/C=C\CO)cc2c1=O` [Example 135, N-[(4-Chlorophenyl)methyl]-1,4-dihydro-6-[(1Z)-3-hydroxy-1-propenyl]-4-oxo-3-quinolinecarboxamide], the IC50 turned out to be 0.78 µM. For `O=C(NCc1ccc(Cl)cc1)c1cnc2c(F)cc(CO)cc2c1O` [Example 141, N-(4-Chlorobenzyl)-8-fluoro-4-hydroxy-6-(hydroxymethyl)-3-quinolinecarboxamide] the value was 10.1 µM. Then `O=C(NCc1ccc(Cl)cc1)c1cnc2c(F)cc(S(=O)(=O)NCCc3ccccc3)cc2c1O` [Example 230, N-(4-chlorobenzyl)-8-fluoro-4-hydroxy-6-[(phenethylamino)sulfonyl]-3-quinolinecarboxamide], with 9.6 µM. For `O=C(O)CCc1cc(F)c2ncc(C(=O)NCc3ccc(Cl)cc3)c(O)c2c1` [Example 114, 3-(3-{[(4-Chlorobenzyl)amino]carbonyl}-8-fluoro-4-hydroxy-6-quinolinyl)propanoic acid] the value was 2.2 µM; for `O=C(NCc1ccc(Cl)cc1)c1cnc2c(C(F)(F)F)cc(C#CCO)cc2c1O` [Example 121, N-(4-Chlorobenzyl)-4-hydroxy-6-(3-hydroxy-1-propynyl)-8-(trifluoromethyl)-3-quinolinecarboxamide], 15 µM; for `O=C(NCc1ccc(Cl)cc1)c1cnc2ccc3ncsc3c2c1O` [Example 66, N-[(4-Chlorophenyl)methyl]-9-hydroxythiazolo[5,4-f]quinoline-8-carboxamide], 0.29 µM. `O=C(NCc1ccc(Cl)cc1)c1cnc2c(F)cc(S(=O)(=O)NCCCc3ccccc3)cc2c1O` [Example 234, N-(4-chlorobenzyl)-8-fluoro-4-hydroxy-6-{[(3-phenylpropyl)amino]sulfonyl}-3-quinolinecarboxamide]: the IC50 was found to be 8.9 µM. As for `NC(=O)c1cc(F)c2ncc(C(=O)NCc3ccc(Cl)cc3)c(O)c2c1` [Example 184, N^3-(4-Chlorobenzyl)-8-fluoro-4-hydroxy-3,6-quinolinedicarboxamide], the IC50 worked out at 30.4 µM.
